Laboratory results reported in paper PMC5164911, “Comparative Analysis of the Interaction between Different Flavonoids and PDIA3” (Oxidative Medicine and Cellular Longevity, 2016).
Where two headings read alike, the source gives them in different places.

Legend:
PDIA3 [1] = target: T1, PDIA3 (Homo sapiens, UniProt P30101); experiment: Fluorescence quenching titration of PDIA3 intrinsic fluorescence; type: binding; conditions: for Stern-Volmer constant (K SV): 0.5∗10^−6 M PDIA3 in reduced conditions, pH 7.4, 25°C, flavonoid 0 to 10∗10^−6 M, mean and standard deviation; for bimolecular quenching rate constant (K q): K SV = K q τ0 with τ0 of the order of 10^−8 s; for binding constant (K b): equation of Bi et al., reiterative calculation of Sun et al.
T1 construct: made in house; host or cells: E. coli BL21 (vector pET21)
T1 sequence (P30101 25-505): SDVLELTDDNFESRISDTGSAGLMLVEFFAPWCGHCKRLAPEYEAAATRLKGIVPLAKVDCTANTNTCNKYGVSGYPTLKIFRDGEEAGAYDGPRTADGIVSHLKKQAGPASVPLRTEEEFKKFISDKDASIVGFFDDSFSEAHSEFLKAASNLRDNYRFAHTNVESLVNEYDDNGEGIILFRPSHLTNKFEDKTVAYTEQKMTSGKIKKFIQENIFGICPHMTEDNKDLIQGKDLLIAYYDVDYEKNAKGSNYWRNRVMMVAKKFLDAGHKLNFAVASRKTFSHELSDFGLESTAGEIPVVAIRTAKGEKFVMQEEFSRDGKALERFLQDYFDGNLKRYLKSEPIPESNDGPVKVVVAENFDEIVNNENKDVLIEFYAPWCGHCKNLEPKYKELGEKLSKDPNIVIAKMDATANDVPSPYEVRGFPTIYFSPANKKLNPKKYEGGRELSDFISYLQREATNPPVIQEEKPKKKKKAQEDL
Description: Quantitative analysis of the interaction between individual flavonoids and PDIA3 was performed by fluorimetric titration. […] Briefly, solution of PDIA3 (0.5 μM) or a and a′ domains (1 μM) in phosphate buffered saline (PBS) containing DTT 0.1 mM and EDTA 0.2 mM were titrated in quartz cuvette by stepwise additions, at 5 min time intervals, of individual flavonoid solution (1 mM in PBS/ethanol 50 : 50 v/v freshly prepared from a 20 mM stock solution in DMSO). […] To minimize the inner-filter effect we limited the highest concentration reached in the titration test up to 10 μM. All experiments were carried out at 25°C. Each spectrum was the mean of three repeated scans. Fluorescence spectra of appropriate blanks (flavonoids without proteins) were recorded under the same experimental conditions and subtracted from the corresponding flavonoid-protein system to correct the fluorescence background.
Quenching analysis was performed on PDIA3 (0.5 μM), in the reduced form, by adding stepwise increasing concentration of each molecule and recording the protein fluorescence spectra. For some flavonoids the analysis was extended to isolate a′ domain (1 μM), always in the reduced form. […] For each ligand molecule the Stern-Volmer quenching constant was obtained by linear regression of plots of F 0/F versus [L].
The Stern-Volmer quenching constant may be expressed as K SV = K q τ 0, where K q is the quencher rate coefficient and τ 0 is the average lifetime of the emissive excited state of the protein in the absence of the quencher.
The number of binding sites (n) and the binding constant (K b) were obtained by plotting log((F 0 − F)/F) versus log(1/([L t] − n(F 0 − F)[P t]/F 0)) using the reiterative calculation process described by Sun et al., assuming a similar affinity for each binding site.

PDIA3 [2] = target: T1, PDIA3; experiment: Differential scanning fluorimetry (thermal stability, SYPRO Orange); type: binding; conditions: flavonoid up to 50 μM, mainly at the highest concentration
Description: Protein stability was tested by the fluorescence-based thermal stability assay or differential scanning fluorimetry (DSF) developed by Pantoliano and coworkers. DSF records the fluorescence emission signal from the binding of a dye (SYPRO orange) to the exposed hydrophobic patches upon protein unfolding. Fluorescence measurements were performed using a CFX96 Connect RT-PCR instrument (BioRad). 18 μl aliquots of protein solution (1 μM), freshly diluted in Tris Buffered saline (50 mM TrisHCl, pH 8.0, 150 mM NaCl) containing 0.1 mM DTT, 0.2 mM EDTA, and 1 : 1000 dilution of SYPRO Orange (50 mM stock solution in DMSO), were distributed in a 96-well plate. Sample wells were addition of increasing concentration (up to 50 μM) of individual flavonoid by adding 2 μl of 10-fold concentrated stock solutions freshly prepared. As control, the protein solution was added with 2 μl of the dilution buffer. A melting point analysis was recorded increasing the temperature from 20 to 95°C with an increment of 0.5°C and reading, at each temperature, the fluorescence in fluorescence resonance energy transfer mode (FRET). Each measure was the average of three sample wells reading and each DSF experiment was repeated at least three times. To calculate T m values, DSF data from the melting curve were exported and fitted to Boltzman equation using GraphPad software. Effect of flavonoids was evaluated comparing the T m values in presence and absence of each molecule.

PDIA3 [3] = target: T1, PDIA3; experiment: DNA binding activity by EMSA; type: biochemical; conditions: flavonoid 0 to 50 μM
Description: EMSA assay was performed using a 79-bp […] obtained by PCR as previously described. Amplified DNA was end-labeled by using 5-fluorescein-modified primers. 10 ng of DNA fragment was incubated with 1 μg of PDIA3 or a′ domain, in presence of increasing concentration of flavonoids (from 0 to 50 μM). Controls were performed using DNA alone and in the presence of each flavonoid. All tests were performed in 20 μl mixtures containing 20 mM Tris-HCl, pH 7.5, 50 mM NaCl, and 10% (v/v) glycerol. Samples were incubated for 1 hour at 25°C and then resolved on 5% polyacrylamide gels in 0,25% TBE buffer (22.5 mM Tris-borate, 5 mM EDTA, pH 8.3) at 150 V. Gel images were recorded using a ChemiDoc MP Imaging System (BioRad) equipped with an epi-blue excitation lamp and a 520 nm emission filter.

[4] = K d = 1/K b, reduced PDIA3, pH 7.4, 25°C, read-out: dissociation constant (K d)

Row | Structure (SMILES) | Stern-Volmer constant (K SV) (PDIA3 [1]) [M⁻¹] | bimolecular quenching rate constant (K q) (PDIA3 [1]; reduced PDIA3, pH 7.4, 25°C) [M⁻¹ s⁻¹] | Kd (PDIA3 [1]; [4]) [µM] | binding constant (K b) (PDIA3 [1]; reduced PDIA3, pH 7.4, 25°C) [M⁻¹] | Effect on PDIA3 stability (T m) (PDIA3 [2]) | Kd (PDIA3 [1]; Figure 8, no unit printed in the picture, read-out: Dissociation constant (Kd)) [µM] | Effect on DNA binding activity of PDIA3 (PDIA3 [3])
1 | O=c1cc(-c2ccc(O)cc2)oc2cc(O)cc(O)c12 [Apigenin, apigenin] | 54332 ± 1185 | 5.43e+12 | 17 | 58700 | similar, but less pronounced, effect | – | –
2 | COc1ccc(-c2cc(=O)c3c(O)c(OC)c(OC)cc3o2)cc1O [Eupatorin, eupatorin] | 89362 ± 688 | 8.94e+12 | 10.3 | 96700 | – | 10.3 | did not significantly affect and None
3 | COc1ccc(-c2cc(=O)c3c(OC)c(OC)c(OC)cc3o2)cc1O [Eupatorin-5-methyl ether, eupatorin-5-methyl-ether] | 90016 ± 1875 | 9e+12 | 11.1 | 90400 | – | – | did not significantly affect
